Peptide text beside a SMILES is read from it.
Assays:
Type in all cases: cell-based
[1] = tested on: Fokalen Adhäsionskinase (FAK); experiment: Stimulation/activation of focal adhesion kinase, fluorescence measurement; conditions: L6-Myoblasten
Description: (§1) Die Ausführungsbeispiele zeigen, dass die Tetrapeptide Seq ID 1-6 wenigstens die gleiche Wirksamkeit aufweisen wie Testosteron und die Testosteronanaloga. Dabei weisen sie als Tetrapeptide jedoch nicht die hormonbedingten Nebenwirkungen auf, da sie nur am membrangebundenen Androgenrezeptor ZIP-9 binden und nicht im Zellkern am klassischen Androgenrezeptor (AR). Eine besonders positive Wirkung kommt dem erfindungsgemäßen Tetrapeptid 1 Seq ID 1 zu. Die Wirksamkeit der erfindungsgemäßen Tetrapeptide Seq ID 1-6 zur Behandlung der Osteoporose, myodegenerativen Erkrankungen (zum Beispiel Muskeldystrophie, insbesondere jedoch Muskelatrophie) sowie der männlichen Infertilität wird experimentell in Zellkultur in einem charakteristischen Zellmodell gezeigt. Zur Verabreichung an Menschen und Tiere wird mindestens ein erfindungsgemäße Tetrapeptid als medizinisches Mittel in einer pharmazeutisch akzeptablen Komposition als Arzneimittel formuliert. Das medizinische Mittel wird zur Behandlung der Osteoporose, myodegenerativen Erkrankungen sowie der männlichen Infertilität bei Menschen und Tieren eingesetzt. Es löst dabei keine übermäßige Toxizität, Irritationen oder allergische Reaktionen aus. […]

[2] = tested on: Claudin-5; experiment: Stimulation of Claudin-5 formation, fluorescence measurement; conditions: 93RS2 Sertoli-Zellen; relative to control sample without tetrapeptide
Description: (§2) Die besondere Wirksamkeit von Tetrapeptid Seq ID 1 umfasst weiterhin die Stimulierung der Bildung von Claudin-1 und Claudin-5 in Zellen. Claudine sind kleine Transmembranproteine, die in vielen Organismen, Menschen und Tieren vorkommen und in ihrem Aufbau sehr ähnlich sind. Sie haben entscheidende Funktionen zur Bildung einer funktionierenden Barriere in verschiedenen Epithelien. Es gibt zahlreiche […] von Claudinen, die weitgehend ubiquitär exprimiert sind und Grundfunktionen für die Bildung der Tight-Junction-Bänder übernehmen. Caudin-1 und Claudin-5 sind spezialisierte Claudine, die an der Blut-Hoden-Schranke der männlichen Gonaden exprimiert werden. Ihre Beteiligung an der Ausbildung und Aufrechterhaltung der Tight Junctions an der Blut-Hoden-Schranke schützt die männlichen Keimzellen vor Angriffen des eigenen Immunsystems. Somit gehen Defekte der Blut-Hoden-Schranke immer mit Infertilität einher. […] Experimentell erfolgt die Quantifizierung der Stimulation der Bildung von Claudin-1 und/oder Claudin-5 in der Zelle durch Fluoreszenzmessung. Der quantitative Messwert zur Beschreibung der Stimulation der Bildung von Claudin-1 und/oder Claudin-5 in 93RS2 Sertoli-Zellen ist die Fluoreszenzintensität der mit dem Tetrapeptid behandelten Zellen bei mikroskopischer Betrachtung im direkten Vergleich mit einer gleichbehandelten Kontrollprobe ohne Tetrapeptid.

[3] = tested on: SAOS-2-Zellen; experiment: Stimulation of ossification, Alizarin red staining
Description: Die Ausführungsbeispiele zeigen, dass die Tetrapeptide Seq ID 1-6 wenigstens die gleiche Wirksamkeit aufweisen wie Testosteron und die Testosteronanaloga. Dabei weisen sie als Tetrapeptide jedoch nicht die hormonbedingten Nebenwirkungen auf, da sie nur am membrangebundenen Androgenrezeptor ZIP-9 binden und nicht im Zellkern am klassischen Androgenrezeptor (AR). Eine besonders positive Wirkung kommt dem erfindungsgemäßen Tetrapeptid 1 Seq ID 1 zu. Die Wirksamkeit der erfindungsgemäßen Tetrapeptide Seq ID 1-6 zur Behandlung der Osteoporose, myodegenerativen Erkrankungen (zum Beispiel Muskeldystrophie, insbesondere jedoch Muskelatrophie) sowie der männlichen Infertilität wird experimentell in Zellkultur in einem charakteristischen Zellmodell gezeigt. Zur Verabreichung an Menschen und Tiere wird mindestens ein erfindungsgemäße Tetrapeptid als medizinisches Mittel in einer pharmazeutisch akzeptablen Komposition als Arzneimittel formuliert. Das medizinische Mittel wird zur Behandlung der Osteoporose, myodegenerativen Erkrankungen sowie der männlichen Infertilität bei Menschen und Tieren eingesetzt. Es löst dabei keine übermäßige Toxizität, Irritationen oder allergische Reaktionen aus. Bevorzugt wird das medizinische Mittel umfassend mindestens ein erfindungsgemäßes Tetrapeptid Menschen oder Tieren in Form entweder oral, intramuskulär, intraossär, rektal, parenteral, intravenös, subkutan, intracisternal, intravaginal, intraperitoneal, intrathekal, intravasculär, lokal (Puder, Salbe oder Tropfen), in Sprayform oder als Pflaster verabreicht. Dosierungsformen für die örtliche Administration des medizinischen Mittels dieser Erfindung schließen Salben, Puder, Sprays oder Inhalationsmittel ein. Das mindestens eine erfindungsgemäße Tetrapeptid als medizinisches Mittel wird unter sterilen Bedingungen mit einem physiologisch akzeptablen Trägerstoff und möglichen Konservierungsmitteln, Puffern oder Treibmitteln, je nach Bedarf, vermischt. Ein Konservierungsmittel ist eine Chemikalie, die zugesetzt wird, um die Zersetzung zu verhindern. Es hilft, das medizinische Mittel gegen Bakterien- und Pilzbefall oder Abbau durch Enzyme zu schützen, indem es das Wachstum von Bakterien oder Pilzen verhindern und/oder die Zersetzung des Mittels verlangsamt. Bevorzugt wird das medizinische Mittel dieser Erfindung als Lyophilisat hergestellt. Bevorzugt wird das medizinische Mittel dieser Erfindung oral verabreicht. Da das darin enthaltene mindestens eine Tetrapeptid sehr klein ist, wird es von proteolytischen Enzymen nicht so rasch abgebaut und kann seine Wirksamkeit am ZIP-9 Rezeptor sehr selektiv und sehr spezifisch entfalten. Die Tetrapeptide Seq ID 1-6 werden gemäß Verfahren, die der Fachmann kennt, einfach und mit geringen Kosten hergestellt. Sie weisen in lyophilisierter Form eine lange Lagerungsbeständigkeit und hohe Aktivität auf. Die Lagerung ist bei Raumtemperatur möglich. Ein Vorteil ist, dass aufgrund der hohen Spezifität nur geringe Mengen verabreicht werden müssen, um an den ZIP-9 Rezeptor zu binden und dort die positiven Effekte auszulösen. In einem besonderen Ausführungsbeispiel wird das Tetrapeptid Seq ID 1 verkapselt, damit es im Magen-Darm-Trakt nicht abgebaut (säure-hydrolysiert), sondern als Tetrapeptid in den Blutkreislauf aufgenommen wird. Dazu werden z.B. mesoporöse Silicapartikel verwendet, die die Bioverfügbarkeit verlängern. Alternativ werden an das Tetrapeptid Polymere angehängt, wie z.B. Polyethlenglycolgruppen (PEGylierung). […]

[4] = tested on: Zonula Occludens-1 (ZO-1); experiment: Stimulation of ZO-1 expression, fluorescence measurement; conditions: Sertoli-Zellen; Fig. 4B-4D
Description: Experimentell erfolgt die Quantifizierung der Stimulation der Bildung von ZO-1 in 93RS2 Sertoli-Zellen durch quantitative Auswertung der Messung der Expression von ZO-1. Der quantitative Messwert zur Beschreibung der Stimulation der Expression von ZO-1 ist die Häufigkeit (Frequenz), mit der mindestens ein bestimmter Wert ("Wert") der Fluoreszenzintensität gemessen wird. Die Bedeutung der Begriffe "Häufigkeit"/"Frequenz" und "Wert"/"Wert der Fluoreszenzintensität" ist dabei analog der Bedeutung im Zusammenhang mit der Alkalischen Phosphatase und bezieht sich hierbei auf Fig. 4F bzw. Fig. 4G bzw. Fig. 4H bzw. Fig. 4I. Die Häufigkeit des mindestens einen bestimmten Wertes der in den mit dem erfindungsgemäßen Tetrapeptid behandelten Zellen gemessenen Werte im direkten Vergleich mit der Häufigkeit des mindestens einen gleichen Wertes, die in Tetrapeptid-freien aber ansonsten gleich behandelten Kontrollzellen gemessen wird, beträgt ab dem Wert 70 mindestens 120 % der in den gleich behandelten Kontrollzellen gemessenen Häufigkeit ab dem Wert 70.
Die Durchführung des Färbevorganges erfolgt bei allen Proben (Referenz, Vergleichsprobe mit Testosteron und Tetrapeptid) in gleicher Weise, so dass die Farbstärke (erkennbar in der photographischen Darstellung in Fig. 1A und Fig. 1B anhand der Grauwerte in der jeweiligen Abbildung) als Maß für die Stimulierung dient (je dunkler der Grauwert, umso stärker die Stimulation zur Ossifikation). […] Dem Fachmann sind diese Zusammenhänge bekannt, ebenso weiß er wie Untersuchungen der Expression von Enzymen, und somit auch der ALP, quantitativ durchgeführt werden, so dass darauf hier nur allgemein eingegangen werden muss. […] Im Rahmen der vorliegenden Ausführungsbeispiele (Beispielmessungen) wurden alle dem Fachmann bekannten Parameter, beispielsweise Lösungsmittel- und Pufferzusammensetzungen sowie -Konzentrationen, Temperaturen, Geräteeinstellungen (z. B. für die Messung der Fluoreszenzstärke) usw. in geeigneten Grenzen konstant gehalten, so dass die Versuchsergebnisse die beschriebenen quantitativ-vergleichbaren relativen Ergebnisse liefern. […]

[5] = tested on: L6-Myoblasten; experiment: Formation of myotubes (muscle fibres) from myoblasts; conditions: 9 Stunden Inkubation, Fig. 3B
Description: as §1

[6] = tested on: Alkalischen Phosphatase (ALP); experiment: Expression of alkaline phosphatase, immunofluorescence; conditions: SAOS-2 Osteoblasten; for Expression der Alkalischen Phosphatase (grüne Fluoreszenz): Fig. 2A, 2B
Description: Die Ausführungsbeispiele zeigen, dass die Tetrapeptide Seq ID 1-6 wenigstens die gleiche Wirksamkeit aufweisen wie Testosteron und die Testosteronanaloga. Dabei weisen sie als Tetrapeptide jedoch nicht die hormonbedingten Nebenwirkungen auf, da sie nur am membrangebundenen Androgenrezeptor ZIP-9 binden und nicht im Zellkern am klassischen Androgenrezeptor (AR). Eine besonders positive Wirkung kommt dem erfindungsgemäßen Tetrapeptid 1 Seq ID 1 zu. Die Wirksamkeit der erfindungsgemäßen Tetrapeptide Seq ID 1-6 zur Behandlung der Osteoporose, myodegenerativen Erkrankungen (zum Beispiel Muskeldystrophie, insbesondere jedoch Muskelatrophie) sowie der männlichen Infertilität wird experimentell in Zellkultur in einem charakteristischen Zellmodell gezeigt. Zur Verabreichung an Menschen und Tiere wird mindestens ein erfindungsgemäße Tetrapeptid als medizinisches Mittel in einer pharmazeutisch akzeptablen Komposition als Arzneimittel formuliert. Das medizinische Mittel wird zur Behandlung der Osteoporose, myodegenerativen Erkrankungen sowie der männlichen Infertilität bei Menschen und Tieren eingesetzt. Es löst dabei keine übermäßige Toxizität, Irritationen oder allergische Reaktionen aus. Bevorzugt wird das medizinische Mittel umfassend mindestens ein erfindungsgemäßes Tetrapeptid Menschen oder Tieren in Form entweder oral, intramuskulär, intraossär, rektal, parenteral, intravenös, subkutan, intracisternal, intravaginal, intraperitoneal, intrathekal, intravasculär, lokal (Puder, Salbe oder Tropfen), in Sprayform oder als Pflaster verabreicht. Dosierungsformen für die örtliche Administration des medizinischen Mittels dieser Erfindung schließen Salben, Puder, Sprays oder Inhalationsmittel ein. Das mindestens eine erfindungsgemäße Tetrapeptid als medizinisches Mittel wird unter sterilen Bedingungen mit einem physiologisch akzeptablen Trägerstoff und möglichen Konservierungsmitteln, Puffern oder Treibmitteln, je nach Bedarf, vermischt. Ein Konservierungsmittel ist eine Chemikalie, die zugesetzt wird, um die Zersetzung zu verhindern. […]

[7] = tested on: Myogenin; experiment: Stimulation of myogenin formation, fluorescence measurement; conditions: L6-Myoblasten; relative to control sample without tetrapeptide
Description: as §1

[8] = tested on: Claudin-1; experiment: Stimulation of Claudin-1 formation, fluorescence measurement; conditions: 93RS2 Sertoli-Zellen; relative to control sample without tetrapeptide
Description: as §2

[9] = tested on: L6-Myoblasten; experiment: Formation of myotubes (muscle fibres) from myoblasts; conditions: 9 Stunden Inkubation, Fig. 3B; remark: listed apart in the source
Description: (§3) Zur Verabreichung an Menschen und Tiere wird mindestens ein erfindungsgemäße Tetrapeptid als medizinisches Mittel in einer pharmazeutisch akzeptablen Komposition als Arzneimittel formuliert. […] Bevorzugt wird das medizinische Mittel umfassend mindestens ein erfindungsgemäßes Tetrapeptid Menschen oder Tieren in Form entweder oral, intramuskulär, intraossär, rektal, parenteral, intravenös, subkutan, intracisternal, intravaginal, intraperitoneal, intrathekal, intravasculär, lokal (Puder, Salbe oder Tropfen), in Sprayform oder als Pflaster verabreicht. Dosierungsformen für die örtliche Administration des medizinischen Mittels dieser Erfindung schließen Salben, Puder, Sprays oder Inhalationsmittel ein. Das mindestens eine erfindungsgemäße Tetrapeptid als medizinisches Mittel wird unter sterilen Bedingungen mit einem physiologisch akzeptablen Trägerstoff und möglichen Konservierungsmitteln, Puffern oder Treibmitteln, je nach Bedarf, vermischt. Ein Konservierungsmittel ist eine Chemikalie, die zugesetzt wird, um die Zersetzung zu verhindern. […] Bevorzugt wird das medizinische Mittel dieser Erfindung als Lyophilisat hergestellt. Bevorzugt wird das medizinische Mittel dieser Erfindung oral verabreicht.

[10] = tested on: SAOS-2-Zellen; experiment: Stimulation of ossification, Alizarin red staining; remark: listed apart in the source
Description: as §3

[11] = tested on: Alkalischen Phosphatase (ALP); experiment: Expression of alkaline phosphatase, immunofluorescence; conditions: SAOS-2 Osteoblasten; Fig. 2A, 2B
Description: as §3

[12] = tested on: Fokalen Adhäsionskinase (FAK); experiment: Stimulation/activation of focal adhesion kinase, fluorescence measurement; conditions: L6-Myoblasten; 6 Stunden Inkubation; versus reference sample; Fig. 3A
Description: as §3

Molecule: CC[C@H](C)[C@H](N)C(=O)N[C@@H](C)C(=O)N1CCC[C@H]1C(=O)NCC(=O)O [Peptid-1, IAPG] (H-IAPG-OH)
- grüne Fluoreszenz (FAK) ([1]; 6 Stunden Inkubation, versus reference sample, Fig. 3A): stärkere grüne Fluoreszenz
- Fluoreszenzintensität (FAK) ([1]; relative to control sample without tetrapeptide): wenigstens den dreifachen Wert
- Fluoreszenzintensität (Claudin-5) [2]: wenigstens den dreifachen Wert
- Stimulierung der Ossifikation ([3]; 4 Tagen Inkubation, Fig. 1A): Stimulierung der Ossifikation
- Stimulierung der Ossifikation ([3]; 11 Tagen Inkubation, Fig. 1B): Stimulierung der Ossifikation
- Farbstärke (Alizarinrot) ([3]; relative to equally treated control sample without tetrapeptide): wenigstens den dreifachen Wert
- Expression von Zonula occludens-1 (ZO-1) [4]: stimulierenden Wirkung
- Bildung von Myotuben (Muskelfasern) [5]: Myotuben (= Muskelfasern) gebildet
- Bildung von Myotuben (Muskelfasern) ([5]; listed as Tetrapeptid Seq ID 1): die Muselfaserbildung stimuliert
- Expression der Alkalischen Phosphatase (grüne Fluoreszenz) [6]: Abnahme der grünen Fluoreszenz
- Häufigkeit (Frequenz) der Fluoreszenzintensität, Expression der ALP ([6]; ab dem Wert 65, % of frequency in tetrapeptide-free control cells): ≤ 50%
- Fluoreszenzintensität (Myogenin) [7]: wenigstens den dreifachen Wert
- Fluoreszenzintensität (Claudin-1) [8]: wenigstens den dreifachen Wert

Molecule: CC(C)[C@H](NC(=O)CN)C(=O)N[C@@H](CO)C(=O)NCC(=O)O [Peptid-2, GVSG] (H-GVSG-OH)
- Stimulierung der Ossifikation ([3]; 4 Tagen Inkubation, Fig. 1A): Stimulierung der Ossifikation
- Stimulierung der Ossifikation ([3]; 11 Tagen Inkubation, Fig. 1B): Stimulierung der Ossifikation
- Expression von Zonula occludens-1 (ZO-1) [4]: stimulierenden Wirkung
- Expression der Alkalischen Phosphatase (grüne Fluoreszenz) [6]: Abnahme der grünen Fluoreszenz

Molecule: C[C@]12CC[C@H]3[C@@H](CCC4=CC(=O)CC[C@@]43C)[C@@H]1CC[C@@H]2O [Testosteron]
- Bildung von Myotuben (Muskelfasern) [9]: Myotuben (= Muskelfasern) gebildet
- Stimulierung der Ossifikation ([10]; 4 Tagen Inkubation, Fig. 1A): Stimulierung der Ossifikation
- Stimulierung der Ossifikation ([10]; 11 Tagen Inkubation, Fig. 1B): Stimulierung der Ossifikation
- Expression der Alkalischen Phosphatase (grüne Fluoreszenz) [11]: Abnahme der grünen Fluoreszenz
- grüne Fluoreszenz (FAK) [12]: stärkere grüne Fluoreszenz

Molecule: GWG [Peptid-3]
- Expression von Zonula occludens-1 (ZO-1) [4]: stimulierenden Wirkung

— EP4001293A1, “TETRAPEPTIDE AND ITS USE” (Justus-Liebig-Universität Gießen, priority 2020, dated 2022)
